Reference: patent US20230413824A1, “AGROCHEMICAL COMPOSITION COMPRISING 3-SUBSTITUTED PHENYLAMIDINE COMPOUNDS AND USE THEREOF” (PI INDUSTRIES LIMITED, priority 2020, published 2023)
Read-outs that look alike come from different tables or passages of the source.

Assays:
Format in all cases: in vivo
Pyricularia oryzae = assay: whole plant or invertebrate; conditions: for pest or weed control at 0.05 ppm / pest or weed control at 0.1 ppm: Pyricularia oryzae, read-out: Observed Efficacy; for Observed Efficacy: single compound, preventive spray, rice
Erysiphe cichoracearum = Erysiphe cichoracearum test in cucumber (preventive, glasshouse); conditions: single compound; for pest or weed control at 0.05 ppm / pest or weed control at 0.1 ppm: Golovinomyces cichoracearum, read-out: Observed Efficacy (%)
Alternaria solani = Alternaria solani test in tomato (preventive, glasshouse); conditions: for pest or weed control at 0.05 ppm / pest or weed control at 0.1 ppm: Alternaria solani
Botrytis cinerea = Botrytis cinerea test in tomato (preventive, glasshouse); conditions: single compound
Phakopsora pachyrhizi = Phakopsora pachyrhizi test in soybean (preventive, glasshouse); conditions: single compound; for pest or weed control at 0.1 ppm / pest or weed control at 0.05 ppm: Phakopsora pachyrhizi, read-out: Observed Efficacy (%)
[1] = 0.05 ppm, preventive spray on cucumber
[2] = 0.1 ppm, preventive spray on cucumber
[3] = single compound, 0.05 ppm, preventive spray, read-out: Observed Efficacy (%)
[4] = single compound, 0.1 ppm, preventive spray, read-out: Observed Efficacy (%)
[5] = single compound, Conc. 0.05 ppm, preventive spray, read-out: Observed Efficacy
[6] = single compound, Conc. 0.1 ppm, preventive spray, read-out: Observed Efficacy
[7] = Table B3, single compound, Conc. 0.05 ppm, preventive
[8] = Table B3, single compound, Conc. 0.1 ppm, preventive
[9] = single compound, 0.05 ppm, preventive
[10] = single compound, 0.1 ppm, preventive
[11] = Botrytis cinerea, Conc. 0.05 ppm, preventive spray on tomato, % control vs untreated, read-out: Observed Efficacy (%)
[12] = Table F4, Conc. 0.05 ppm, Botrytis cinerea in tomato, preventive
[13] = Table F4, Conc. 0.1 ppm, Botrytis cinerea in tomato, preventive, read-out: Observed Efficacy (%)
[14] = 0.1 ppm, preventive spray on soybean
[15] = Conc. 0.1 ppm, soybean, preventive, Table D4
[16] = Table F4, Conc. 0.1 ppm, Botrytis cinerea in tomato, preventive
[17] = Table F5, Conc. 0.05 ppm, Botrytis cinerea in tomato, preventive
[18] = Table F5, Conc. 0.1 ppm, Botrytis cinerea in tomato, preventive
[19] = Table B4, single compound, Conc. 0.05 ppm, preventive
[20] = Table B4, single compound, Conc. 0.1 ppm, preventive
[21] = Botrytis cinerea, Conc. 0.1 ppm, preventive spray on tomato, % control vs untreated, read-out: Observed Efficacy (%)
[22] = 0.05 ppm, preventive spray on soybean
[23] = Conc. 0.05 ppm, soybean, preventive, Table D4
[24] = Conc. 0.1 ppm, soybean, preventive, Table D5
[25] = single compound, 0.05 ppm, preventive spray
[26] = single compound, 0.1 ppm, preventive spray
[27] = single compound, Conc. 0.1 ppm, preventive spray
[28] = Conc. 0.05 ppm, preventive spray on tomato, % control vs untreated
[29] = Conc. 0.1 ppm, preventive spray on tomato, % control vs untreated
[30] = Conc. 0.05 ppm, soybean, preventive, Table D5

Molecule | pest or weed control at 0.05 ppm (Pyricularia oryzae) [%] | pest or weed control at 0.1 ppm (Pyricularia oryzae) [%] | Observed Efficacy (%) (Erysiphe cichoracearum; [1]) | Observed Efficacy (%) (Erysiphe cichoracearum; [2]) | pest or weed control at 0.05 ppm (Alternaria solani; [3]) [%] | pest or weed control at 0.1 ppm (Alternaria solani; [4]) [%] | pest or weed control at 0.05 ppm (Alternaria solani; [5]) [%] | pest or weed control at 0.1 ppm (Alternaria solani; [6]) [%] | Observed Efficacy (%) (Alternaria solani; [7]) | Observed Efficacy (%) (Alternaria solani; [8]) | Observed Efficacy (%) (Alternaria solani; [9]) | Observed Efficacy (%) (Alternaria solani; [10]) | pest or weed control at 0.05 ppm (Botrytis cinerea; [11]) [%] | Observed Efficacy (%) (Botrytis cinerea; [12]) | Observed Efficacy (%) (Phakopsora pachyrhizi; [15]) | Observed Efficacy (%) (Botrytis cinerea; [16]) | Observed Efficacy (%) (Alternaria solani; [19]) | Observed Efficacy (%) (Alternaria solani; [20]) | Observed Efficacy (%) (Phakopsora pachyrhizi; [23]) | Observed Efficacy (%) (Botrytis cinerea; [28]) | other results
O=C(Nc1ccccc1-c1ccc(Cl)cc1)c1cccnc1Cl [Boscalid, boscalid] | 24 | 37 | 24 | 32 | 13 | 26 | 13 | 26 | 13 | 26 | 13 | 26 | 38 | 38 | 32 |  |  |  |  |  | pest or weed control at 0.05 ppm (Erysiphe cichoracearum; 0.05 ppm, cucumber, preventive): 24%; pest or weed control at 0.1 ppm (Erysiphe cichoracearum; 0.1 ppm, cucumber, preventive): 32%; pest or weed control at 0.1 ppm (Botrytis cinerea; [13]): 52%; pest or weed control at 0.1 ppm (Phakopsora pachyrhizi; [14]): 32%
N#Cc1sc2c(=O)c3ccccc3c(=O)c=2sc1C#N [Dithionon] |  |  |  |  |  |  |  |  | 21 | 26 |  |  |  | 38 |  | 45 |  |  |  |  | Observed Efficacy (%) (Botrytis cinerea; [17]): 38%; Observed Efficacy (%) (Botrytis cinerea; [18]): 45%
CC1CC(C)(C)c2c(F)ccc(NC(=O)c3cn(C)nc3C(F)F)c21 (centres unmarked) [Fluindapyr, 3-(difluoromethyl)-N-(7-fluoro-1,1,3-trimethyl-2,3-dihydro-1H-inden-4-yl)-1-methyl-1H-pyrazole-4-carboxamide] | 11 |  | 29 | 38 | 14 | 29 |  |  | 14 | 29 | 14 | 29 | 27 | 27 | 30 | 41 | 14 | 29 | 20 |  | pest or weed control at 0.05 ppm (Erysiphe cichoracearum; 0.05 ppm, cucumber, preventive): 29%; pest or weed control at 0.1 ppm (Erysiphe cichoracearum; 0.1 ppm, cucumber, preventive): 38%; pest or weed control at 0.1 ppm (Botrytis cinerea; [21]): 41%; Observed Efficacy (%) (Botrytis cinerea; [17]): 27%; Observed Efficacy (%) (Botrytis cinerea; [18]): 41%; pest or weed control at 0.05 ppm (Phakopsora pachyrhizi; [22]): 20%; pest or weed control at 0.1 ppm (Phakopsora pachyrhizi; [14]): 30%; Observed Efficacy (%) (Phakopsora pachyrhizi; [24]): 30%
CC(O)(Cn1cncn1)c1ccc(Oc2ccc(Cl)cc2)cc1C(F)(F)F (centres unmarked) [Mefentrifluconazole, mefentrifluconazole] |  |  | 21 | 24 |  |  |  |  | 12 | 26 | 12 | 26 |  | 31 |  | 38 | 12 | 26 |  | 31 | Observed Efficacy (Pyricularia oryzae; Conc. 0.05 ppm): 21%; Observed Efficacy (Pyricularia oryzae; Conc. 0.1 ppm): 24%; Observed Efficacy (%) (Erysiphe cichoracearum; 0.1 ppm, cucumber, preventive): 24%; Observed Efficacy (%) (Alternaria solani; [25]): 12%; Observed Efficacy (%) (Alternaria solani; [26]): 26%; Observed Efficacy (Alternaria solani; single compound, Conc. 0.05 ppm, preventive spray): 12%; Observed Efficacy (Alternaria solani; [27]): 26%; Observed Efficacy (%) (Botrytis cinerea; [29]): 38%
CNC(=O)/C(=N/OC)c1ccccc1Oc1ccccc1 [Metaminostorbin] |  |  |  |  |  |  |  |  |  |  |  |  |  |  |  |  |  |  |  | 28 | Observed Efficacy (%) (Botrytis cinerea; [29]): 40%; Observed Efficacy (%) (Phakopsora pachyrhizi; [22]): 45%; Observed Efficacy (%) (Phakopsora pachyrhizi; [14]): 56%
OC(Cc1ccccc1Cl)(Cn1nc[nH]c1=S)C1(Cl)CC1 (centres unmarked) [Prothioconazole, prothioconazole] | 17 | 33 |  |  | 20 | 31 | 20 | 31 | 20 | 31 | 20 | 31 | 36 | 36 |  | 44 | 20 | 31 |  |  | pest or weed control at 0.01 ppm (Botrytis cinerea; Botrytis cinerea, Conc. 0.01 ppm, preventive spray on tomato, % control vs untreated, read-out: Observed Efficacy (%)): 44%; pest or weed control at 0.1 ppm (Botrytis cinerea; [21]): 44%
COC(=O)N(OC)c1ccccc1COc1ccn(-c2ccc(Cl)cc2)n1 [Pyraclostrobin, pyraclostrobin] | 16 | 24 |  | 24 | 21 | 28 | 21 | 28 |  | 28 |  |  |  |  |  |  |  |  |  |  | pest or weed control at 0.05 ppm (Erysiphe cichoracearum; [1]): 21%; pest or weed control at 0.1 ppm (Erysiphe cichoracearum; 0.1 ppm, cucumber, preventive): 24%; pest or weed control at 0.05 ppm (Botrytis cinerea; Table F4, Conc. 0.05 ppm, Botrytis cinerea in tomato, preventive, read-out: Observed Efficacy (%)): 38%; pest or weed control at 0.1 ppm (Botrytis cinerea; [13]): 43%
CC(C)(C)C(O)(CCc1ccc(Cl)cc1)Cn1cncn1 (centres unmarked) [Tebuconazole, tebuconazole] | 17 | 36 |  |  | 34 | 54 | 34 | 54 | 34 | 54 | 34 | 54 | 35 |  | 44 |  | 34 |  | 38 |  | pest or weed control at 0.05 ppm (Erysiphe cichoracearum; [1]): 29%; pest or weed control at 0.1 ppm (Botrytis cinerea; [21]): 38%; pest or weed control at 0.05 ppm (Phakopsora pachyrhizi; [22]): 38%; pest or weed control at 0.1 ppm (Phakopsora pachyrhizi; [14]): 44%; Observed Efficacy (%) (Phakopsora pachyrhizi; [30]): 38%; Observed Efficacy (%) (Phakopsora pachyrhizi; [24]): 44%
mancozeb |  |  | 24 | 29 |  |  |  |  | 14 | 16 | 14 | 16 |  | 19 | 15 | 24 | 14 | 16 | 12 | 19 | Observed Efficacy (%) (Erysiphe cichoracearum; 0.05 ppm, cucumber, preventive): 24%; Observed Efficacy (%) (Erysiphe cichoracearum; 0.1 ppm, cucumber, preventive): 29%; Observed Efficacy (%) (Alternaria solani; [25]): 14%; Observed Efficacy (%) (Alternaria solani; [26]): 16%; Observed Efficacy (Alternaria solani; [27]): 16%; Observed Efficacy (%) (Botrytis cinerea; [29]): 24%; Observed Efficacy (%) (Phakopsora pachyrhizi; [22]): 12%; Observed Efficacy (%) (Phakopsora pachyrhizi; [14]): 15%; Observed Efficacy (%) (Phakopsora pachyrhizi; [30]): 12%; Observed Efficacy (%) (Phakopsora pachyrhizi; [24]): 15%
metiram |  |  | 47 | 55 |  |  |  |  |  |  |  |  |  | 40 | 37 | 57 | 26 | 30 | 17 | 40 | Observed Efficacy (Pyricularia oryzae; Conc. 0.05 ppm): 16%; Observed Efficacy (Pyricularia oryzae; Conc. 0.1 ppm): 18%; Observed Efficacy (%) (Erysiphe cichoracearum; 0.05 ppm, cucumber, preventive): 47%; Observed Efficacy (%) (Erysiphe cichoracearum; 0.1 ppm, cucumber, preventive): 55%; Observed Efficacy (%) (Alternaria solani; [25]): 26%; Observed Efficacy (%) (Alternaria solani; [26]): 30%; Observed Efficacy (%) (Botrytis cinerea; [29]): 57%; Observed Efficacy (%) (Phakopsora pachyrhizi; [22]): 17%
